This note sets out measurements from PubChem BioAssay (NCI).

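Exposure lasted 48 hours, with cells grown in 96-well plates and compounds tested at five concentrations. GI50 is the concentration that inhibits growth by half. The concentration for full growth arrest is given as TGI.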

Among the test systems are KM12 colon; OVCAR-5 ovarian; SF-295 CNS; HCT-15 colon; SF-268 CNS; EKVX NSCLC; SK-MEL-5 melanoma; SF-539 CNS; COLO 205 colon; K-562 leukemia.
Assay in all cases: inhibition of tumour cell growth, NCI panel, 48 h

Take `CCc1cc2ncc(CN3CCN(c4ccc(C(=O)NC)nc4)CC3)cc2[nH]c1=O`: the GI50 was over 100 µM with KM12 colon; over 100 µM in the assay with OVCAR-5 ovarian; 56.7 µM in the assay with SF-295 CNS; 65.4 µM in the assay with HCT-15 colon; over 100 µM with SF-268 CNS; 84.9 µM with EKVX NSCLC. In addition, the GI50 is 30.4 µM in the assay with SK-MEL-5 melanoma, 66.9 µM with SF-539 CNS, over 100 µM in the assay with COLO 205 colon and 50 µM in the assay on K-562 leukemia. The TGI in the assay with KM12 colon, with OVCAR-5 ovarian, with SF-295 CNS, in the assay with HCT-15 colon, with SF-268 CNS and in the assay with EKVX NSCLC was over 100 µM throughout. The TGI with SK-MEL-5 melanoma, in the assay with SF-539 CNS, in the assay on COLO 205 colon and with K-562 leukemia was over 100 µM in each case.
Regarding `COC(=O)C1C=NNC1C(=O)OC` (stereo not given), the TGI in the assay on KM12 colon, with OVCAR-5 ovarian, in the assay with SF-295 CNS, in the assay with HCT-15 colon, with SF-268 CNS and in the assay with EKVX NSCLC was over 100 µM throughout. In addition, the TGI in the assay with SK-MEL-5 melanoma, in the assay on SF-539 CNS, with COLO 205 colon and in the assay with K-562 leukemia was over 100 µM throughout.
